This note sets out measurements from US11046720B2, “Dimethylphosphine oxide compound” (GUIZHOU INOCHINI TECHNOLOGY CO., LTD, priority 2018, dated 2021).

Molecules are shown by their SMILES. Like-named read-outs stand apart in the source and are kept apart here.

In one series the target is T1, LRRK2 (pSer935) (Homo sapiens, UniProt Q5S007).
T1 construct: expressed in transfected cells; host or cells: 293T cells
As to the kind of experiment: In vitro evaluation of inhibitory activity for LRRK2 cell (pSer935), 293T cells transfected with pcmv-flag-lrrk2, MSD. It is filed as cell-based. How it is done: Take 293T cells out of liquid nitrogen and put them in water at 37° C. After ice has fully thawed, transfer the cells to 5 mL warm culture medium. Discard the supernatant through centrifugation, and culture the suspended cells in the culture medium as new cells.
Culture the 293T cells in the culture medium for two to three days.
Plant 1.4×10^6/293T cells on a culture plate. After two days of culturing, cells will multiply to 5×10^6, so planting cells on N+1 plates is enough for performing experiments on N 96-well plates.
1) Add 5 μl (0.5 μg/μl) pcmv-flag-Irrk2 to 145 μl DMEM culture medium, and mix them evenly with a straw;
6) Incubate the culture plate inside a humidified incubator with 5% carbon dioxide for 20 to 24 hours at 37° C.
3. (Day 3) Plant the 293T Cells on the 96-Well Plate;
3) Transfer 50 μl inhibitor containing culture medium to the cell culture plate;
4) Incubate the culture plate inside a humidified incubator with 5% carbon dioxide for 20 to 24 hours at 37° C.;
5) Extract 300 μl inhibitor containing culture medium with a dropper. Take 200 μl inhibitor containing culture medium and add 100 μl decomposer into the culture medium. After the plate has been sealed, it shall be shaken for 30 minutes at 4° C.
1) Add 2 μg/25 μl labeled antibody to the MSD plate to incubate for 2 hours; (50 μl 3.9 μg/μl Flag antibody+2.5 ml fetal bovine serum per plate). Maintain centrifugation for 10 s (1,000 rpm);
5) Transfer 12.5 μl lysis buffer and 12.5 μl cell lysis buffer to the MSD plate to incubate for 1 hour at room temperature;
7) Dilute ps935 antibody at 1:200, and add 25 μl antibody to incubate for 1 hour;
9) Dilute goat anti-rabbit antibody at 1:500, and add 25 μl antibody to the incubation plate to incubate for 1 hour;
13) After incubation for about 3 minutes, read data over 15 minutes.

In series [1] the target is T2, LRRK2 full-length human recombinant protein (Homo sapiens, UniProt Q5S007).
T2 construct: express LRRK2 full-length human recombinant protein in Sf9 cells of insects; GST; made in house; host or cells: Sf9 insect cells (baculovirus)
T2 sequence (Q5S007 whole entry): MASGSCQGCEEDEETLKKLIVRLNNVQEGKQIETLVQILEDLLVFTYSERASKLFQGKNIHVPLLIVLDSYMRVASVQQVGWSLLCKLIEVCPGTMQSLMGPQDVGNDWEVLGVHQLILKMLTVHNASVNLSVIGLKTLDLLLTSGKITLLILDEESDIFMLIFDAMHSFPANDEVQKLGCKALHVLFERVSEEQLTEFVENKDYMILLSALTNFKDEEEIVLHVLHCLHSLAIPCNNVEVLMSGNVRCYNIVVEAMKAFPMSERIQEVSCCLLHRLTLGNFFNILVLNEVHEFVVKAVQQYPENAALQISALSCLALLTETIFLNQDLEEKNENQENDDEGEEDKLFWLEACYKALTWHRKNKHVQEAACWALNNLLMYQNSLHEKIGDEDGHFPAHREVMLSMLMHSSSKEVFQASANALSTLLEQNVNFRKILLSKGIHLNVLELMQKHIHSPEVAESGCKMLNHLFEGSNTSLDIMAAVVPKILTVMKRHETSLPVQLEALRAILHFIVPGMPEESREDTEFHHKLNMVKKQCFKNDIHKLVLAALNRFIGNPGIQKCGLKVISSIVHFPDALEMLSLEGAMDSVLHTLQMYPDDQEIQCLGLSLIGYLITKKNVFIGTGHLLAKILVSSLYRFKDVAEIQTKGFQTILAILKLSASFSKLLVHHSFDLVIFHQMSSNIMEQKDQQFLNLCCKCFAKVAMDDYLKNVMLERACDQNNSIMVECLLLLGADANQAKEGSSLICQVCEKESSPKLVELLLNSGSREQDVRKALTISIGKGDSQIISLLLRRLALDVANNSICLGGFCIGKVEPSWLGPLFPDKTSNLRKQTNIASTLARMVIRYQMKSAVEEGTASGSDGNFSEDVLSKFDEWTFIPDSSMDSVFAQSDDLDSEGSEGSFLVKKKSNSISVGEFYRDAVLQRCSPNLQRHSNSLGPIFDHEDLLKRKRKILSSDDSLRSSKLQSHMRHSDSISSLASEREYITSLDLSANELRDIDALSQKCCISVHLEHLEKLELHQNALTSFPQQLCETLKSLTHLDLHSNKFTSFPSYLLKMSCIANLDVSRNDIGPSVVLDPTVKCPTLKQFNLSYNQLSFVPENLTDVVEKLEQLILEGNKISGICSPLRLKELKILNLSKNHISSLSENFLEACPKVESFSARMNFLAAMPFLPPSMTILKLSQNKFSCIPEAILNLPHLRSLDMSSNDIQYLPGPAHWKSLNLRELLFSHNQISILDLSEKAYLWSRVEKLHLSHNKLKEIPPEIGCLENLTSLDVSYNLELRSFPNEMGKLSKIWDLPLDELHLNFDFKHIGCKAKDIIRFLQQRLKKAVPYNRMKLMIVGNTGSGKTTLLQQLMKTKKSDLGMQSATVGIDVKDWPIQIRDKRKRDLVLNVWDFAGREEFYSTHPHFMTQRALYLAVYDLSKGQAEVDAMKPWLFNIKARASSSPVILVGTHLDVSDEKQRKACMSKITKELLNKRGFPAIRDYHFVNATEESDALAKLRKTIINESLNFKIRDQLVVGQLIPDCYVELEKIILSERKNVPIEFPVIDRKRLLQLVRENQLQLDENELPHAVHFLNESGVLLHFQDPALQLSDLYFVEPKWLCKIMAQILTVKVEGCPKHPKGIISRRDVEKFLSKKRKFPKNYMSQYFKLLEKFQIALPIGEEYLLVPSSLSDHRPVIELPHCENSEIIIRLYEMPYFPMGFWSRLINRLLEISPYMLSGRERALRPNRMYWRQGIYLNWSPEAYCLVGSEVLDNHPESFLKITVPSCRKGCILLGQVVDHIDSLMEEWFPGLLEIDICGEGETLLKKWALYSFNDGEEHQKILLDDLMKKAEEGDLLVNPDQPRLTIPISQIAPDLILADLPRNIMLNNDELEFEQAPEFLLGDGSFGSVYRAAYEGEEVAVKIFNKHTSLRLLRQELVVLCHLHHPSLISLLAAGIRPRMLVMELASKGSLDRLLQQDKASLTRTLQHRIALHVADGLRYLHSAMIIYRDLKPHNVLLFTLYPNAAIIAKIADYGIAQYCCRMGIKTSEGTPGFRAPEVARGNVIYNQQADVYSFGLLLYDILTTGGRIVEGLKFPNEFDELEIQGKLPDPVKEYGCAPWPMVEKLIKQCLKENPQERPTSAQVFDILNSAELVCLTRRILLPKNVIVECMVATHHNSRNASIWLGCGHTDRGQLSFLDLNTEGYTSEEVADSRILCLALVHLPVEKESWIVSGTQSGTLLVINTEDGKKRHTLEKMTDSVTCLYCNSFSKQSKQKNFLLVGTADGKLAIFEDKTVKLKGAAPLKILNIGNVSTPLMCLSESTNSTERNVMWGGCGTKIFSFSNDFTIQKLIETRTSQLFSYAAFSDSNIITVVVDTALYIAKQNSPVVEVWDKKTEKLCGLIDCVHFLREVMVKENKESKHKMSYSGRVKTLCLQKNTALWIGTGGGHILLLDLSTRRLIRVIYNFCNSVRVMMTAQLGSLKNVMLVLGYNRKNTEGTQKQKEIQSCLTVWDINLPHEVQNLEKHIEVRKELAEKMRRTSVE
As to the kind of experiment: In vitro evaluation of LRRK2 kinase inhibitory activity (HTRF / TR-FRET, LRRKtide). It is filed as biochemical. The settings on record: 57 μM ATP, 0.4 uM Fluorescein-ERM (LRRKtide) peptide. How it is done: Experimental purpose: to detect transfer of energy signals (ratio of fluorescence signals: […]) after the phosphate group of phosphorylated Fluorescein-ERM (LRRKtide) peptide binds with LanthaScreen® Tb-pERM (pLRRKtide) antibody using homogeneous time-resolved fluorescence. Calculate IC50 for LRRK2 inhibition of the compound to be assayed.
1. Reaction solution: 10 mM 4-(2-hydroxyethyl) piperazine-1-ethanesulfonic acid (pH 7.5); 2 mM magnesium chloride; 0.5 mM glycol-bis-(2-aminoethylether)-N; 0.002% primary alcohol ethoxylate, 1 mM dithiothreitol and 1% DMSO;
2. Assay solution: TR-FRET Dilution Buffer;
3. LRRK2 human recombinant protein: use GST tag and baculovirus to express LRRK2 full-length human recombinant protein in Sf9 cells of insects;
4. Substrate: 0.4 uM Fluorescein-ERM (LRRKtide) peptide; 57 uM ATR
Resonance energy transfer of Fluorescein-ERM (LRRKtide) peptide and LanthaScreen® Tb-pERM (pLRRKtide) antibody between […].
1. Add DMSO solution of the compound to be assayed through the Echo550 non-contact nano-liter acoustic droplet ejection system;
2. Prepare mixed solution of enzyme and polypeptide with freshly prepared reaction solution. Add the mixed solution to the reaction cavity and warm it up at room temperature for 20 minutes in advance;
3. Add 57 μM ATP to initiate reaction, which lasts for 90 minutes at room temperature;
4. Add fluorescein-ERM (LRRKtide) peptide, LanthaScreen® Tb-pERM (pLRRKtide) antibody and 10 mM ethylene diamine tetraacetic acid to the assay system. The reaction lasts for 60 minutes at room temperature. Detect yellow light signals with Em/Ex 520/485.
5. Measure enzyme activity inhibition relative to DMSO blank control group according to the signal ratio, and calculate IC50 by fitting curves with the software XLfit5.

Series [2] is described as follows: Pharmacokinetic evaluation in C57BL/6 mice, brain tissues and plasma. The following applies: oral, 5 mg/kg. It is filed as in vivo. How it is done: Experimental purpose: to study pharmacokinetics of the compounds in vivo in C57BL/6 mice—drug concentration ratio between brain tissues and plasma
Experimental materials: C57BL/6 mice (male, 8 weeks old, weight: 25 g-30 g)
Assay Pharmacokinetic Features of Glires after they are Orally Administered the Compounds According to Standard Schemes.
In the experiment, the candidate compounds are prepared into 1 mg/mL mixed suspension, and mice are orally administered once. The menstruum for oral administration is 10% dimethyl sulfoxide (DMSO)/10% polysorbate/20% PEG-400 aqueous solution. This project uses male C57BL/6 mice, which are orally administered drugs at a dose of 5 mg/kg. Collect the whole brain 0.5, 1, 2 and 4 hours after the administration. Homogenize tissue samples with 15 mM [[…] (pH=7.4) buffer and methanol (volume ratio: 2:1)] at a ratio of 1:5 (w:v). Equally divide the homogenate into 2 samples: one for assay and the other for standby use. Besides, collect plasma 0.5, 1, 2 and 4 hours after administration. Centrifugate with 3,000 g relative centrifugal force within half an hour after collection at about 4° C. for 15 minutes to separate supernatant and obtain plasma samples. Store the plasma samples in polypropylene tubes; rapidly freeze them on dry ice and keep them at −80° C. till LC/MS/MS assay. Add internal standard precipitated protein of acetonitrile solution and fully mix them to extract supernatant samples via centrifugation. Quantitatively analyze plasma concentration by LC-MS/MS assay and calculate pharmacokinetic parameters such as maximal concentration (Cmax), half-life (T1/2), maximal time (Tmax), drug concentration in different tissues after administration (AUC0-last), and drug concentration ratio between brain tissues and plasma (B/P).

The subject of series [3] is LRRK2 phosphorylation in brain tissues. As to the kind of experiment: In vivo pharmacological experiment: LRRK2 phosphorylation in brain tissues of mice (western blot). Also noted: species or system C57BL/6J mice. The following applies: oral, 10 mg/kg, once, 1 hour after administration. For orientation: In western blotting, separated proteins are transferred to a membrane and probed.
Experimental: Animals: C57BL/6J mice (male, 6-7 weeks old, weight: 20 g-22 g).
Grouping: Weigh all mice one day ahead of the experiment and divide them into 6 groups at random according to their weight, with 4 mice in each group. Exclude too heavy and too light mice, to ensure that average weight of all groups is the same.
The animals of each group are orally administered menstruum or the compound to be assayed in chronological order as shown in Table 4. One mouse is administered every 2 minutes. 1 hour after administration, all animals are successively euthanized with carbon dioxide in chronological order.
(1) After protein determination of brain tissue samples by BCA, apply 4% to 15% precast gel in an equal amount of protein samples.
(3) Perform protein electrophoresis at 200 V for 30 minutes. Then, use Midi PVDF Transfer Packs for membrane transfer for 7 minutes. Next, block them with TBS Blocker at room temperature for 1 hour.
(4) Prepare 5% milk with skimmed milk powder. Then, formulate antibodies P-LRRK2 (add 20 μl antibody to 5 mL 5% milk at 1:250), total-LRRK2 (add 10 μl antibody to 5 ml 5% skimmed milk at 1:500), p-Rabl0 (add 10 μl antibody to 5 mL 5% skimmed milk at 1:500) and p-actin (add 5 μl antibody to 5 mL 5% milk at 1:1000), and incubate the antibodies overnight. (5) Recycle the primary antibodies and rinse membranes with TBS for three times, 10 minutes each time. […]

T1 sequence (Q5S007 whole entry): as above

`COc1nc(N2CC3(COC3)C2)ccc1Nc1ncc(Cl)c(Nc2ccccc2P(C)(C)=O)n1` [Embodiment 12]: the IC50 (commonly the midpoint of a concentration-inhibition curve) came to 3.7 nM at LRRK2 (pSer935) and 1.6 nM in series [1]. For the same compound, the Kp in series [2] (male, C57BL/6, mouse, brain/plasma, read-out: drug concentration ratio between brain tissues and plasma (B/P)) was determined as 0.14. Moreover, the AUC(0-t) in series [2] (male, C57BL/6, mouse, brain tissues, read-out: AUC0-last Brain Tissues) turned out to be 0.476 µM·h; in series [2] (male, C57BL/6, mouse, plasma, read-out: AUC0-last Plasma), 3.46 µM·h. For the same compound, the half-life in series [2] (male, C57BL/6, mouse, brain tissues, read-out: T1/2 Brain Tissues (converted)) was 23.4 min; in series [2] (male, C57BL/6, mouse, plasma, read-out: T1/2 Plasma (converted)), 36 min. The Tmax (usually the time at which the peak concentration occurs) in series [2] (male, C57BL/6, mouse, brain tissues, read-out: Tmax Brain Tissues) came out at 30 min; in series [2] (male, C57BL/6, mouse, plasma, read-out: Tmax Plasma), 30 min. Also, the Cmax (commonly the peak of the concentration-time curve) in series [2] (male, C57BL/6, mouse, plasma) came to 3.63 µM. For the same compound, the “Cmax Brain Tissues” value in series [2] (brain tissues) stood at 0.576 µM.
As to `CCNc1nc(Nc2cc(F)c(C(=O)N3CCOCC3)cc2OC)ncc1C(F)(F)F` [GNE-7915], the “inhibition of LRRK2 phosphorylation in brain tissues” value in series [3] was “inhibits FRRK2 phosphorylation”.
